The assay concerns the target human PDE4D catalytic domain (UniProt no. Q08499) (Homo sapiens (Human), UniProt Q08499). In words: PDE4 assay (TR-FRET, FAM-cAMP cleavage). Type of assay: biochemical. The settings on record: human PDE4D catalytic domain; molar concentration giving 50% inhibition of substrate cleavage; read-out: PDE4 IC50 range. In a few lines: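 PDE4D catalytic domain ([…]) was incubated with unlabelled cAMP plus FAM-cAMP and titrated compound, stopped with binding buffer of metal-ion nanoparticles and Tb donor. AMP generation read by TR-FRET; IC50 as 50% inhibition of cleavage versus controls, reported as nM ranges.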
Sequence of human PDE4D catalytic domain (Q08499 380-740 limits assumed): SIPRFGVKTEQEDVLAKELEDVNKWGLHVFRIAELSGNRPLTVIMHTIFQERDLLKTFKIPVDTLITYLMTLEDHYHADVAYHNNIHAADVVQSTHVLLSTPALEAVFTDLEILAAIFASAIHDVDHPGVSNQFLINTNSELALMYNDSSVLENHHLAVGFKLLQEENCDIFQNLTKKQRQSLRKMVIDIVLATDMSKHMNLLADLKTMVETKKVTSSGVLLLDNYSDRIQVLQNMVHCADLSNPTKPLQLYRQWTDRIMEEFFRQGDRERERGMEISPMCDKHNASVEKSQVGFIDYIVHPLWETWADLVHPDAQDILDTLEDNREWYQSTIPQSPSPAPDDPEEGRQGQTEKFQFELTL
As a reminder, the IC50 is the concentration that inhibits the measured activity by half. Consider `CCc1nn(C[C@@H](C)COC(=O)c2cccc(F)c2)c2c1C(=O)NCC1(CCOCC1)C2` [Example 165, [(2R)-3-(3-ethyl-4-oxo-spiro[6,8-dihydro-5H-pyrazolo[4,3-c]azepine-7,4′-tetrahydropyran]-1-yl)-2-methyl-propyl] 3-fluorobenzoate], for which the IC50 is less than 100 nM.
In the case of `CCc1nn(C[C@@H](C)COC(=O)c2ccc(F)cc2)c2c1C(=O)NCC1(CCOCC1)C2` [Example 166, [(2R)-3-(3-ethyl-4-oxo-spiro[6,8-dihydro-5H-pyrazolo[4,3-c]azepine-7,4′-tetrahydropyran]-1-yl)-2-methyl-propyl] 4-fluorobenzoate] it was less than 100 nM.
For `CCc1nn(C[C@@H](C)COC(=O)c2cccc(C#N)c2)c2c1C(=O)NCC1(CCOCC1)C2` [Example 167, [(2R)-3-(3-ethyl-4-oxo-spiro[6,8-dihydro-5H-pyrazolo[4,3-c]azepine-7,4′-tetrahydropyran]-1-yl)-2-methyl-propyl] 3-cyanobenzoate] the value was less than 100 nM; for `CCc1nn(C[C@@H](C)COC(=O)c2ccc(C#N)cc2)c2c1C(=O)NCC1(CCOCC1)C2` [Example 168, [(2R)-3-(3-ethyl-4-oxo-spiro[6,8-dihydro-5H-pyrazolo[4,3-c]azepine-7,4′-tetrahydropyran]-1-yl)-2-methyl-propyl] 4-cyanobenzoate], less than 100 nM.
Regarding `CCc1nn(C[C@@H](C)COC(=O)c2ccc(C)c(C)c2)c2c1C(=O)NCC1(CCOCC1)C2` [Example 169, [(2R)-3-(3-ethyl-4-oxo-spiro[6,8-dihydro-5H-pyrazolo[4,3-c]azepine-7,4′-tetrahydropyran]-1-yl)-2-methyl-propyl] 3,4-dimethylbenzoate], the IC50 is less than 100 nM.
In the case of `CCc1nn(C[C@@H](C)COC(=O)c2ccc(C)cc2C)c2c1C(=O)NCC1(CCOCC1)C2` [Example 170, [(2R)-3-(3-ethyl-4-oxo-spiro[6,8-dihydro-5H-pyrazolo[4,3-c]azepine-7,4′-tetrahydropyran]-1-yl)-2-methyl-propyl] 2,4-dimethylbenzoate] it was less than 100 nM; in that of `CCc1nn(C[C@@H](C)COC(=O)c2cccc(OC)c2)c2c1C(=O)NCC1(CCOCC1)C2` [Example 171, [(2R)-3-(3-ethyl-4-oxo-spiro[6,8-dihydro-5H-pyrazolo[4,3-c]azepine-7,4′-tetrahydropyran]-1-yl)-2-methyl-propyl] 3-methoxybenzoate], less than 100 nM.
In the case of `CCc1nn(C[C@@H](C)COC(=O)c2ccc(C)cc2F)c2c1C(=O)NCC1(CCOCC1)C2` [Example 172, [(2R)-3-(3-ethyl-4-oxo-spiro[6,8-dihydro-5H-pyrazolo[4,3-c]azepine-7,4′-tetrahydropyran]-1-yl)-2-methyl-propyl] 2-fluoro-4-methyl-benzoate], the IC50 was less than 100 nM.
As to `CCc1nn(C[C@@H](C)COC(=O)c2cc(F)ccc2C)c2c1C(=O)NCC1(CCOCC1)C2` [Example 173, [(2R)-3-(3-ethyl-4-oxo-spiro[6,8-dihydro-5H-pyrazolo[4,3-c]azepine-7,4′-tetrahydropyran]-1-yl)-2-methyl-propyl] 5-fluoro-2-methyl-benzoate], the IC50 was less than 100 nM.
For `CCc1nn(C[C@@H](C)COC(=O)c2c(C)cccc2F)c2c1C(=O)NCC1(CCOCC1)C2` [Example 174, [(2R)-3-(3-ethyl-4-oxo-spiro[6,8-dihydro-5H-pyrazolo[4,3-c]azepine-7,4′-tetrahydropyran]-1-yl)-2-methyl-propyl] 2-fluoro-6-methyl-benzoate] the value was less than 100 nM; for `CCc1nn(C[C@@H](C)COC(=O)c2ccc(Cl)cc2)c2c1C(=O)NCC1(CCOCC1)C2` [Example 175, [(2R)-3-(3-ethyl-4-oxo-spiro[6,8-dihydro-5H-pyrazolo[4,3-c]azepine-7,4′-tetrahydropyran]-1-yl)-2-methyl-propyl] 4-chlorobenzoate], less than 100 nM.
In the case of `CCc1nn(C[C@@H](C)COC(=O)c2c(F)cccc2F)c2c1C(=O)NCC1(CCOCC1)C2` [Example 176, [(2R)-3-(3-ethyl-4-oxo-spiro[6,8-dihydro-5H-pyrazolo[4,3-c]azepine-7,4′-tetrahydropyran]-1-yl)-2-methyl-propyl] 2,6-difluorobenzoate], the IC50 was less than 100 nM.
In the case of `CCc1nn(C[C@@H](C)COC(=O)c2cc(F)ccc2F)c2c1C(=O)NCC1(CCOCC1)C2` [Example 177, [(2R)-3-(3-ethyl-4-oxo-spiro[6,8-dihydro-5H-pyrazolo[4,3-c]azepine-7,4′-tetrahydropyran]-1-yl)-2-methyl-propyl] 2,5-difluorobenzoate] it was less than 100 nM; in that of `CCc1nn(C[C@@H](C)COC(=O)c2ccc(F)c(F)c2)c2c1C(=O)NCC1(CCOCC1)C2` [Example 178, [(2R)-3-(3-ethyl-4-oxo-spiro[6,8-dihydro-5H-pyrazolo[4,3-c]azepine-7,4′-tetrahydropyran]-1-yl)-2-methyl-propyl] 3,4-difluorobenzoate], less than 100 nM.
In the case of `CCc1nn(C[C@@H](C)COC(=O)c2cccc(F)c2F)c2c1C(=O)NCC1(CCOCC1)C2` [Example 179, [(2R)-3-(3-ethyl-4-oxo-spiro[6,8-dihydro-5H-pyrazolo[4,3-c]azepine-7,4′-tetrahydropyran]-1-yl)-2-methyl-propyl] 2,3-difluorobenzoate] it was less than 100 nM; in that of `CCc1nn(C[C@@H](C)COC(=O)c2ccc(C(C)=O)cc2)c2c1C(=O)NCC1(CCOCC1)C2` [Example 180, [(2R)-3-(3-ethyl-4-oxo-spiro[6,8-dihydro-5H-pyrazolo[4,3-c]azepine-7,4′-tetrahydropyran]-1-yl)-2-methyl-propyl] 4-acetylbenzoate], less than 100 nM.
In the case of `CCc1nn(C[C@@H](C)COC(=O)c2cccc(C(C)=O)c2)c2c1C(=O)NCC1(CCOCC1)C2` [Example 181, [(2R)-3-(3-ethyl-4-oxo-spiro[6,8-dihydro-5H-pyrazolo[4,3-c]azepine-7,4′-tetrahydropyran]-1-yl)-2-methyl-propyl] 3-acetylbenzoate] it was less than 100 nM; in that of `CCc1nn(C[C@@H](C)COC(=O)c2cc(F)cc(C#N)c2)c2c1C(=O)NCC1(CCOCC1)C2` [Example 182, [(2R)-3-(3-ethyl-4-oxo-spiro[6,8-dihydro-5H-pyrazolo[4,3-c]azepine-7,4′-tetrahydropyran]-1-yl)-2-methyl-propyl] 3-cyano-5-fluoro-benzoate], less than 100 nM.
For `CCc1nn(C[C@@H](C)COC(=O)c2cc(C#N)ccc2F)c2c1C(=O)NCC1(CCOCC1)C2` [Example 183, [(2R)-3-(3-ethyl-4-oxo-spiro[6,8-dihydro-5H-pyrazolo[4,3-c]azepine-7,4′-tetrahydropyran]-1-yl)-2-methyl-propyl] 5-cyano-2-fluoro-benzoate], the IC50 was less than 100 nM.
For `CCc1nn(C[C@@H](C)COC(=O)c2ccc(F)c(C#N)c2)c2c1C(=O)NCC1(CCOCC1)C2` [Example 184, [(2R)-3-(3-ethyl-4-oxo-spiro[6,8-dihydro-5H-pyrazolo[4,3-c]azepine-7,4′-tetrahydropyran]-1-yl)-2-methyl-propyl] 3-cyano-4-fluoro-benzoate] the value was less than 100 nM; for `CCc1nn(C[C@@H](C)COC(=O)c2ccc(C#N)c(F)c2)c2c1C(=O)NCC1(CCOCC1)C2` [Example 185, [(2R)-3-(3-ethyl-4-oxo-spiro[6,8-dihydro-5H-pyrazolo[4,3-c]azepine-7,4′-tetrahydropyran]-1-yl)-2-methyl-propyl] 4-cyano-3-fluoro-benzoate], less than 100 nM; for `CCc1nn(C[C@@H](C)COC(=O)c2ccc(OC)c(C)c2)c2c1C(=O)NCC1(CCOCC1)C2` [Example 186, [(2R)-3-(3-ethyl-4-oxo-spiro[6,8-dihydro-5H-pyrazolo[4,3-c]azepine-7,4′-tetrahydropyran]-1-yl)-2-methyl-propyl] 4-methoxy-3-methyl-benzoate], less than 100 nM.
In the case of `CCc1nn(C[C@@H](C)COC(=O)c2ccc(C)cc2OC)c2c1C(=O)NCC1(CCOCC1)C2` [Example 187, [(2R)-3-(3-ethyl-4-oxo-spiro[6,8-dihydro-5H-pyrazolo[4,3-c]azepine-7,4′-tetrahydropyran]-1-yl)-2-methyl-propyl] 2-methoxy-4-methyl-benzoate] it was less than 100 nM; in that of `CCc1nn(C[C@@H](C)COC(=O)c2ccc(OC)c(F)c2)c2c1C(=O)NCC1(CCOCC1)C2` [Example 188, [(2R)-3-(3-ethyl-4-oxo-spiro[6,8-dihydro-5H-pyrazolo[4,3-c]azepine-7,4′-tetrahydropyran]-1-yl)-2-methyl-propyl] 3-fluoro-4-methoxy-benzoate], less than 100 nM.
In the case of `CCc1nn(C[C@@H](C)COC(=O)c2ccc(OC)cc2F)c2c1C(=O)NCC1(CCOCC1)C2` [Example 189, [(2R)-3-(3-ethyl-4-oxo-spiro[6,8-dihydro-5H-pyrazolo[4,3-c]azepine-7,4′-tetrahydropyran]-1-yl)-2-methyl-propyl] 2-fluoro-4-methoxy-benzoate] it was less than 100 nM.
On to `CCc1nn(C[C@@H](C)COC(=O)c2cccc(OC)c2F)c2c1C(=O)NCC1(CCOCC1)C2` [Example 190, [(2R)-3-(3-ethyl-4-oxo-spiro[6,8-dihydro-5H-pyrazolo[4,3-c]azepine-7,4′-tetrahydropyran]-1-yl)-2-methyl-propyl] 2-fluoro-3-methoxy-benzoate], for which the IC50 is less than 100 nM.
On to `CCc1nn(C[C@@H](C)COC(=O)c2cc(OC)ccc2F)c2c1C(=O)NCC1(CCOCC1)C2` [Example 191, [(2R)-3-(3-ethyl-4-oxo-spiro[6,8-dihydro-5H-pyrazolo[4,3-c]azepine-7,4′-tetrahydropyran]-1-yl)-2-methyl-propyl] 2-fluoro-5-methoxy-benzoate], for which the IC50 is less than 100 nM.
For `CCc1nn(C[C@@H](C)COC(=O)c2cccc(F)c2OC)c2c1C(=O)NCC1(CCOCC1)C2` [Example 192, [(2R)-3-(3-ethyl-4-oxo-spiro[6,8-dihydro-5H-pyrazolo[4,3-c]azepine-7,4′-tetrahydropyran]-1-yl)-2-methyl-propyl] 3-fluoro-2-methoxy-benzoate], the IC50 was less than 100 nM.
